Biological target: T1, SMYD3 (Homo sapiens, UniProt Q9H7B4)
T1 sequence (Q9H7B4 1-428): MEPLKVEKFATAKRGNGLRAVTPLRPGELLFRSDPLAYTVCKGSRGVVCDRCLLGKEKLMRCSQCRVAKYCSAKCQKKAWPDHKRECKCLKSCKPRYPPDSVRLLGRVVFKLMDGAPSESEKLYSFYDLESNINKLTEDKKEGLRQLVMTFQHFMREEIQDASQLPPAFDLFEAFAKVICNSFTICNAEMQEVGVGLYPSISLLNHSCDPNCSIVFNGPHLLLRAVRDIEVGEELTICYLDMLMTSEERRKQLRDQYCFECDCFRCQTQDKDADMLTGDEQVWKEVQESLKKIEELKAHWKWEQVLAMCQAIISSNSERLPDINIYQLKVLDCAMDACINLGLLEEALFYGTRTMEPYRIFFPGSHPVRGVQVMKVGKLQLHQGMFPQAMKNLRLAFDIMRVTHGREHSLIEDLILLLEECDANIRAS
Test: SMYD3 biochemical assay (MTase-Glo, MAP3K2 peptide substrate)
Conditions: Table 3; MTase assay, MAP3K2 peptide substrate; read-out: IC50
Method in brief: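 Methylation of MAP3K2 peptide (10 µM final) with SAM (1.0 µM final) by SMYD3, 30 min at room temperature. SAH formed was enzymatically converted to ATP and detected as luminescence with MTase-Glo reagents; IC50 by non-linear regression.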

| IC50 [nM] | SMILES |
| --- | --- |
| 1800 | CCCOC(=O)N1CCN(C(=O)c2ccc3c(Cl)cc(-c4ccc(C#N)c(C)c4)nc3c2)CC1 [B101, Propyl 4-(4-chloro-2-(4-cyano-3-methylphenyl)quinoline-7-carbonyl)piperazine-1-carboxylate] |
| 530 | CCCOC(=O)N1CCN(C(=O)c2ccc3c(Cl)cc(-c4cccc(C(=O)N(C)C)c4)nc3c2)CC1 [B102, Propyl 4-(4-chloro-2-(3-(dimethylcarbamoyl)phenyl)quinoline-7-carbonyl)piperazine-1-carboxylate] |
| 130 | CCCOC(=O)N1CCN(C(=O)c2ccc3c(Cl)cc(-c4ccc(S(N)(=O)=O)cc4)nc3c2)CC1 [B103, Propyl 4-(4-chloro-2-(4-sulfamoylphenyl)quinoline-7-carbonyl)piperazine-1-carboxylate] |
| 120 | CCCOC(=O)N1CCN(C(=O)c2ccc3c(Cl)cc(-c4ccc(OC)c(CN(C)C)c4)nc3c2)CC1 [B104, Propyl 4-(4-chloro-2-(3-((dimethylamino)methyl)-4-methoxyphenyl)quinoline-7-carbonyl)piperazine-1-carboxylate] |
| 860 | CCCOC(=O)N1CCN(C(=O)c2ccc3c(Cl)cc(-c4cccc(CN5CCOCC5)c4)nc3c2)CC1 [B105, Propyl 4-(4-chloro-2-(3-(morpholinomethyl)phenyl)quinoline-7-carbonyl)piperazine-1-carboxylate] |
| 560 | CCCOC(=O)N1CCN(C(=O)c2ccc3c(Cl)cc(-c4ccc(OC)c(C#N)c4)nc3c2)C[C@H]1C [B106, Propyl (R)-4-(4-chloro-2-(3-cyano-4-methoxyphenyl)quinoline-7-carbonyl)-2-methylpiperazine-1-carboxylate] |
| 76 | CCCOC(=O)N1CCN(C(=O)c2ccc3c(Cl)cc(-c4ccc(OC)c(CN)c4)nc3c2)C[C@H]1C [B107, Propyl (R)-4-(2-(3-(aminomethyl)-4-methoxyphenyl)-4-chloroquinoline-7-carbonyl)-2-methylpiperazine-1-carboxylate] |
| 120 | CCCOC(=O)N1CCN(C(=O)c2ccc3c(Cl)cc(-c4ccc(CN)c(C)c4)nc3c2)CC1 [B108, Propyl 4-(2-(4-(aminomethyl)-3-methylphenyl)-4-chloroquinoline-7-carbonyl)piperazine-1-carboxylate] |
| 380 | CCCOC(=O)N1CCN(C(=O)c2ccc3c(Cl)cc(C4(C)CC4)nc3c2)C[C@H]1C [B109, Propyl (R)-4-(4-chloro-2-(1-methylcyclopropyl)quinoline-7-carbonyl)-2-methylpiperazine-1-carboxylate] |
| 160 | CCCOC(=O)N1CCN(C(=O)c2ccc3c(Cl)cc(-c4ccc(CN(C)C)cc4)nc3c2)CC1 [B110, Propyl 4-(4-chloro-2-(4-((dimethylamino)methyl)phenyl)quinoline-7-carbonyl)piperazine-1-carboxylate] |
| 220 | CCCOC(=O)N1CCN(C(=O)c2ccc3c(Cl)cc(-c4cccc(CN(C)C)c4)nc3c2)C[C@H]1C [B111, Propyl (R)-4-(4-chloro-2-(3-((dimethylamino)methyl)phenyl)quinoline-7-carbonyl)-2-methylpiperazine-1-carboxylate] |
| 140 | CCCOC(=O)N1CCN(C(=O)c2ccc3c(Cl)cc(-c4cccc(CN(C)C)c4)nc3c2)CC1 [B112, Propyl 4-(4-chloro-2-(3-((dimethylamino)methyl)phenyl)quinoline-7-carbonyl)piperazine-1-carboxylate] |
| 92 | CCCOC(=O)N1CCN(C(=O)c2ccc3c(Cl)c(C)c(-c4ccc(C(N)=O)cc4)nc3c2)C[C@H]1C [B113, Propyl (R)-4-(2-(4-carbamoylphenyl)-4-chloro-3-methylquinoline-7-carbonyl)-2-methylpiperazine-1-carboxylate] |
| 420 | CCCOC(=O)N1CCN(C(=O)c2ccc3c(Cl)c(C)c(-c4ccc(C#N)cc4)nc3c2)C[C@H]1C [B114, Propyl (R)-4-(4-chloro-2-(4-cyanophenyl)-3-methylquinoline-7-carbonyl)-2-methylpiperazine-1-carboxylate] |
| 780 | CCCOC(=O)N1CCN(C(=O)c2ccc3c(Cl)cc(-c4ccnc(C)c4)nc3c2)CC1 [B115, Propyl 4-(4-chloro-2-(2-methylpyridin-4-yl)quinoline-7-carbonyl)piperazine-1-carboxylate] |
| 430 | CCCOC(=O)N1CCN(C(=O)c2ccc3c(Cl)cc(-c4ccc(S(=O)(=O)NC)cc4)nc3c2)CC1 [B116, Propyl 4-(4-chloro-2-(4-(N-methylsulfamoyl)phenyl)quinoline-7-carbonyl)piperazine-1-carboxylate] |
| 920 | CCCOC(=O)N1CCN(C(=O)c2ccc3c(Cl)cc(-c4cccc(S(N)(=O)=O)c4)nc3c2)CC1 [B117, Propyl 4-(4-chloro-2-(3-sulfamoylphenyl)quinoline-7-carbonyl)piperazine-1-carboxylate] |

| IC50 [nM] | SMILES |
| --- | --- |
| 250 | CCCOC(=O)N1CCN(C(=O)c2ccc3c(Cl)cc(-c4ccc(C(=O)NC)cc4)nc3c2)CC1 [B118, Propyl 4-(4-chloro-2-(4-(methylcarbamoyl)phenyl)quinoline-7-carbonyl)piperazine-1-carboxylate] |
| 42 | CCCOC(=O)N1CCN(C(=O)c2ccc3c(Cl)cc(-c4ccc(CNC)cc4)nc3c2)C[C@H]1C [B119, Propyl (R)-4-(4-chloro-2-(4-((methylamino)methyl)phenyl)quinoline-7-carbonyl)-2-methylpiperazine-1-carboxylate] |
| 35 | CCCOC(=O)N1CCN(C(=O)c2ccc3c(Cl)cc(-c4ccc(OC)c(CNC)c4)nc3c2)CC1 [B120, Propyl 4-(4-chloro-2-(4-methoxy-3-((methylamino)methyl)phenyl)quinoline-7-carbonyl)piperazine-1-carboxylate] |
| 55 | CCCOC(=O)N1CCN(C(=O)c2ccc3c(Cl)cc(-c4ccc(NC(C)=O)cc4)nc3c2)C[C@H]1C [B121, Propyl (R)-4-(2-(4-acetamidophenyl)-4-chloroquinoline-7-carbonyl)-2-methylpiperazine-1-carboxylate] |
| 70 | CCCOC(=O)N1CCN(C(=O)c2ccc3c(Cl)c(C)c(-c4ccc(CN)cc4)nc3c2)C[C@H]1C [B122, Propyl (R)-4-(2-(4-(aminomethyl)phenyl)-4-chloro-3-methylquinoline-7-carbonyl)-2-methylpiperazine-1-carboxylate] |
| 150 | CCCOC(=O)N1CCN(C(=O)c2ccc3c(Cl)cc(-c4ccc5c(cnn5C)c4)nc3c2)CC1 [B123] |
| 60 | CCCOC(=O)N1CCN(C(=O)c2ccc3c(Cl)cc(-c4cccc(CNC)c4)nc3c2)C[C@H]1C [B124, Propyl (R)-4-(4-chloro-2-(3-((methylamino)methyl)phenyl)quinoline-7-carbonyl)-2-methylpiperazine-1-carboxylate] |
| 560 | CCCOC(=O)N1CCN(C(=O)c2ccc3c(Cl)cc(C4CC4)nc3c2)CC1 [B125, Propyl 4-(4-chloro-2-cyclopropylquinoline-7-carbonyl)piperazine-1-carboxylate] |
| 89 | CCCOC(=O)N1CCN(C(=O)c2ccc3c(Cl)cc(-c4ccc(CN(C)C)s4)nc3c2)CC1 [B126, Propyl 4-(4-chloro-2-(5-((dimethylamino)methyl)thiophen-2-yl)quinoline-7-carbonyl)piperazine-1-carboxylate] |
| 21 | CCCOC(=O)N1CCN(C(=O)c2ccc3c(Cl)cc(-c4ccc5nn(C)cc5c4)nc3c2)CC1 [B127, Propyl 4-(4-chloro-2-(2-methyl-2H-indazol-5-yl)quinoline-7-carbonyl)piperazine-1-carboxylate] |
| 53 | CCCOC(=O)N1CCN(C(=O)c2ccc3c(Cl)cc(-c4ccc5[nH]ncc5c4)nc3c2)CC1 [B128, Propyl 4-(4-chloro-2-(1H-indazol-5-yl)quinoline-7-carbonyl)piperazine-1-carboxylate] |
| 87 | CCCOC(=O)N1CCN(C(=O)c2ccc3c(Cl)cc(-c4ccc5cn[nH]c5c4)nc3c2)CC1 [B129, Propyl 4-(4-chloro-2-(1H-indazol-6-yl)quinoline-7-carbonyl)piperazine-1-carboxylate] |
| 23 | CCCOC(=O)N1CCN(C(=O)c2ccc3c(Cl)cc(-c4ccn(C)c4)nc3c2)CC1 [B130, Propyl 4-(4-chloro-2-(1-methyl-1H-pyrrol-3-yl)quinoline-7-carbonyl)piperazine-1-carboxylate] |
| 360 | CCCOC(=O)N1CCN(C(=O)c2ccc3c(Cl)cc(-c4ccnc(OC)c4)nc3c2)C[C@H]1C [B131, Propyl (R)-4-(4-chloro-2-(2-methoxypyridin-4-yl)quinoline-7-carbonyl)-2-methylpiperazine-1-carboxylate] |
| 170 | CCCOC(=O)N1CCN(C(=O)c2ccc3c(Cl)cc(-c4cnc5[nH]ccc5c4)nc3c2)C[C@H]1C [B132, Propyl (R)-4-(4-chloro-2-(1H-pyrrolo[2,3-b]pyridin-5-yl)quinoline-7-carbonyl)-2-methylpiperazine-1-carboxylate] |
| 1400 | CCCOC(=O)N1CCN(C(=O)c2ccc3c(Cl)cc(C4(C)CC4)nc3c2)CC1 [B133, Propyl 4-(4-chloro-2-(1-methylcyclopropyl)quinoline-7-carbonyl)piperazine-1-carboxylate] |
| 600 | CCCOC(=O)N1CCN(C(=O)c2ccc3c(Cl)cc(-c4ccc(-n5cccn5)cc4)nc3c2)CC1 [B134, Propyl 4-(2-(4-(1H-pyrazol-1-yl)phenyl)-4-chloroquinoline-7-carbonyl)piperazine-1-carboxylate] |

Reference: patent US20190071416A1, “COMPOUNDS FOR TREATMENT OF CANCER AND EPIGENETICS” (Agency For Science, Technology and Research, priority 2015, published 2019)
